Assay results taken from US6239151A, “Compounds as inhibitor of tumor necrosis factor alpha release” (Hoffmann-La Roche Inc., priority 1998, dated 2001).
pIC50: −log10 of the molar value.

Test system: LPS-induced TNF-α release (THP1 cells)
Assay: Inhibition of LPS-induced TNF-α release from THP1 cells (ELISA)
Assay type: cell-based
Details: Homo sapiens, THP-1, LPS 2 mg/ml, 3 hours at 37° C., TNF-α by ELISA, read-out: IC50 (concentration giving 50% inhibition of LPS-induced TNF-α release)
Method: THP1 cells were cultivated in RPMI 1640 medium supplemented with antibiotics and 10% foetal calf serum, harvested by centrifugation and diluted to 5×10^5 cells/ml in the above medium supplemented with 20 mM HEPES buffer. Aliquots ([…]) of the cell suspension were plated out on 96 well culture plates and incubated for 0.5 hour at 37° C. prior to the addition of the test compounds. The latter were dissolved in dimethyl sulphoxide (DMSO) to a stock concentration of 1.2 mM which was diluted with phosphate buffered saline/10% DMSO solution to provide test compounds in final concentrations of 10^-9 to 10^-5 M, with each concentration being tested in duplicate. The cells were incubated with the test compounds for 0.5 hour at 37° C., LPS (bacterial lipopolysaccharide) was then added to a concentration of 2 mg/ml and incubation was continued for 3 hours at 37° C. in an atmosphere containing 5% CO2 and at 95% relative humidity. After centrifugation at 260 g for 10 minutes an aliquot of each supernatant was removed and the amount of TNF-α was estimated by ELISA (R & D Systems Europe Ltd., Abingdon, England). The concentration of test compound which brings about 50% inhibition of LPS-induced TNF-α release (IC50) was computed from the dose-response curve.
The results obtained in the foregoing test with representative compounds of formula I are compiled in the following Table.

Row | pIC50 | SMILES
1 | 6.23 | CC(C)C[C@@H](C(=O)NN(CC(C)C)C(=O)C(C)O)[C@H](C/C=C/c1ccccc1)C(=O)NO (mixture of isomers) [B, (E)-2(R)-[1(S)-(Hydroxycarbamoyl)-4-phenyl-3-butenyl]-2'-(2(RS)-hydroxypropionyl)-2'-isobutyl-4-methylvalerohydrazide]
2 | 6.52 | CC(C)C[C@@H](C(=O)NN(CC(C)C)C(=O)[C@@H](C)N)[C@H](C/C=C/c1ccccc1)C(=O)NO [A, (E)-2'-(D-Alanyl)-2(R)-[1(S)-(hydroxycarbamoyl)-4-phenyl-3-butenyl]-2'-isobutyl-4-methylvalerohydrazide]
3 | 6.70 | CC(C)C[C@@H](C(=O)NN(CC(C)C)C(=O)Cn1ccnc1)[C@H](C/C=C/c1ccccc1)C(=O)NO [C, (E)-2(R)-[1(S)-(Hydroxycarbamoyl)-4-phenyl-3-butenyl]-2'-[2-(1-imidazolyl)acetyl]-2'-isobutyl-4-methylvalerohydrazide]
4 | 6.46 | CC(C)C[C@@H](C(=O)NN(CC(C)C)C(=O)C1CCNCC1)[C@H](C/C=C/c1ccccc1)C(=O)NO [D, (E)-2(R)-[1(S)-(Hydroxycarbamoyl)-4-phenyl-3-butenyl]-2'-isobutyl-4-methyl-2'-[(4-piperidinyl)carbonyl]valerohydrazide]
